From patent US20250170158A1, “METHODS OF TREATING MEDICAL CONDITIONS USING CENSAVUDINE OR A RELATED COMPOUND” (ROME Therapeutics, Inc., priority 2022, published 2025)
“Also recorded” adds a separate entry of the source. Each block holds one compound with its values, some of them ahead of it.

Legend:
[1] = target: T1, LINE1 reverse transcriptase (Homo sapiens, UniProt O00370); assay: Transient artificial-intron Cis LINE1 reporter assay; assay type: cell-based; design: expressed in transfected cells; conditions: HEK 293 cells; ratio of FLuc to RLuc reports LINE1 activity; read-out: IC50, inhibition of FLuc (FF/RR)
Description: Intron-disrupted Firefly luciferase (FLuc) expression cassettes were generated as described by Xie, Y. et al. “Characterization of L1 retrotransposition with high-throughput dual-luciferase assays,” Nucleic Acid Res. (2011) Vol. 39, No. 3, e16. In addition, the plasmid contained an intact Renilla luciferase (RLuc) expression cassette on the vector backbone, in order to normalize transfection efficiency and measure potential cell toxicity.
HEK 293 cells were seeded in 96-well plates at 1,000 cells/well in 55 μL and grown for 24 hours. Cells were transfected with FuGeneHD (Promega) following the manufacturer's protocol. Each well received 0.133 ng plasmid, 0.4 μL FuGeneHD reagent, and 4.5 μL GlutaMAX-I-supplemented Opti-MEM I reduced-serum medium (Invitrogen). Cells were simultaneously treated with test compound serially diluted starting at 100 μM in a 3-fold dilution dose response.
Luminescence was measured using the Dual-Glo Luciferase Assay System (Promega) following the manufacturer's instructions. The ratio between FLuc and RLuc gene expression was used to report LINE1 activity.

[2] = target: T1, LINE1 reverse transcriptase; assay: Stable artificial-intron Cis LINE1 reporter assay; assay type: cell-based; design: expressed in transfected cells; conditions: HeLa L1 artificial-intron reporter cells, doxycycline induced, 72 h, Firefly luciferase; read-out: IC50, inhibition of LINE1 reverse transcriptase
Excerpt: A stable HeLa Tet-On 3G (Takara, cat no 631183) cell line expressing a bi-directional inducible LINE1 construct was generated as described in Xie, Y. et al. “Cell division promotes efficient retrotransposition in a stable L1 reporter cell line,” Mobile DNA (2013) 4:10. Single cell clones were screened for high Luciferase expression and the highest expression Firefly expressing clone was chosen for compound testing.
Test compound was serially diluted in DMSO and spotted in 96-well plates. Subsequently the HeLa L1 artifical-intron reporter cells were plated into the compound-containing wells (8,000 cells/well), and the cells were induced for reporter expression with doxycycline (Sigma cat no D9891) at a final concentration of 500 ng/mL. Luminescence was measured 72 h after plating using the Dual-Glo Luciferase Assay System (Promega cat no E2940) following the manufacturer's instructions. The Firefly Luciferase activity was used to report LINE1 activity.

[3] = target: T1, LINE1 reverse transcriptase; assay: Homogeneous time-resolved fluorescence (HTRF) LINE1 RT assay; assay type: biochemical; design: recombinant MBP-tagged LINE1 protein (238-1061); MBP; made in house; conditions: recombinant MBP-tagged LINE1 protein (238-1061), read-out: IC50, inhibition of LINE1 reverse transcriptase
Description: The LINE1 reverse transcriptase homogeneous time-resolved fluorescence (HTRF) assay was performed with recombinant MBP-tagged LINE1 protein (238-1061) (generated and purified according to procedures in Dai L. et al. BMC Biochemistry 2011; 12:18) in a 384-well format. Test compound was serially diluted in DMSO and further diluted in the assay buffer (50 mM Tris-HCl, 50 mM KCl, 10 mM MgCl2, 10 mM DTT, pH 8.1) to achieve a final DMSO concentration of 1%. The serially diluted compound was mixed with 64 ng/well of LINE1 enzyme, 5 nM of pre-annealed template/biotin-primer pair (synthesized at Generay Biotechnology), 10 nM of Fluorescein-12-dATP fluorescent probe (Perkin Elmer), and 1 μM dGTP/dCTP/dTTP (Thermo Fisher Scientific) in the assay buffer. The template/biotin-primer sequences were as follows:
After incubating at 25° C. for 60 minutes, the detection reagent (20 mM EDTA with streptavidin-terbium cryptate, Cisbio Bioassay) in the PPI buffer (Cisbio Bioassay) was added, and the mixture was incubated at 25° C. for 30 minutes. At the end of the incubation, fluorescence was read at ex/em=337/485 nm and ex/em=337/520 nm on an Envision 2104 plate reader (Perkin Elmer). The fluorescence ratio at 520/485 nm was used for the calculation. […] The IC50 was calculated by fitting the compound dose inhibition curve with a 4-parameter non-linear regression equation.

[4] = target: T2, HERV-K reverse transcriptase (Homo sapiens, UniProt V9H0F6); assay: Homogeneous time-resolved fluorescence (HTRF) HERV-K RT assay; assay type: biochemical; conditions: HERV-K reverse transcriptase (2-596)-8His protein, read-out: IC50, inhibition of HERV-K reverse transcriptase
T2 construct: fused on or other part: C-terminal 8His tag
T2 sequence (V9H0F6 entry or part of it): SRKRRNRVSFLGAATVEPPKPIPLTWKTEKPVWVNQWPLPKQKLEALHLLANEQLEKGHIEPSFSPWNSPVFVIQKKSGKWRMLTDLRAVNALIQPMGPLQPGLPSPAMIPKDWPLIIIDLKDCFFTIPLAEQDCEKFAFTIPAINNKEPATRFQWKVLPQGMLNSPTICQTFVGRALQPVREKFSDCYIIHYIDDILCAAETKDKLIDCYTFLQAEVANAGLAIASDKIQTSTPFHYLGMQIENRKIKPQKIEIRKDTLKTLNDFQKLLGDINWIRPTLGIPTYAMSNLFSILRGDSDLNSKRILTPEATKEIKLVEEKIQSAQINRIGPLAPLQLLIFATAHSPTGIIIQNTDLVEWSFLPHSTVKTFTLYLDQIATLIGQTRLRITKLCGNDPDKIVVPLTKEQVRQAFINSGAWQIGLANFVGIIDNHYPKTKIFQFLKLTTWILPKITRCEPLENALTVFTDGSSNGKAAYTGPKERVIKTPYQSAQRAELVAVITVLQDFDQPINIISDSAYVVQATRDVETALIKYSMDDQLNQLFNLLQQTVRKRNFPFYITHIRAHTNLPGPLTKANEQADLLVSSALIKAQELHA
Description: The HERV-K reverse transcriptase homogeneous time-resolved fluorescence (HTRF) assay was performed in a 384-well format with HERV-K reverse transcriptase (2-596)-8His protein. Baculoviruses were created using Bac-to-Bac technology (Invitrogen). pFastBac donor plasmids containing HERV-K reverse transcriptase sequence (NCBI GenBank number AAC63291.1, J. Virology (1999) Vol. 73, No. 3, pp. 2365-2375) were transformed into DH10 Bac cells following the manufacturer's instructions. Recombinant bacmids were then isolated clonally and transfected into SF9 cells with lipofectin. HERV-K reverse transcriptase was expressed in the SF9 insect cells and then purified using immobilized metal affinity chromatography (IMAC) followed by size-exclusion chromatography (SEC). Test compound was serially diluted in DMSO and further diluted in the assay buffer (50 mM Tris-HCl, 50 mM KCl, 10 mM MgCl2, 10 mM DTT, pH 8.1) to achieve a final DMSO concentration of 1%. […] At the end of the incubation, fluorescence was read at ex/em=337/485 nm and ex/em=337/520 nm on an Envision 2104 plate reader (Perkin Elmer). The fluorescence ratio at 520/485 nm was used for the calculation. […] The IC50 was calculated by fitting the compound dose inhibition curve with a 4-parameter non-linear regression equation.

Type 1 Interferon = assay: Cellular assay for inhibiting IFN production in THP1 TREX1 KO cells; assay type: cell-based; conditions: THP1-Dual KO-TREX1 cells, six days of treatment, alone or with 1 μM 5-Aza-2'-Deoxycytidine; FIG. 2
Description: THP1 Dual TREX1 KO cells were purchased from Invivogen.
Stock solution of censavudine was prepared in DMSO followed by a three-fold dilution in DMSO. Additional 50× dilution was prepared in cell culture media for each dilution. 10 μL of diluted censavudine was then added to a 96 well plate.
THP1-Dual™ KO-TREX1 cells were treated with either 1×PBS or 1 μM 5-Aza-2′-Deoxycytidine. 190 μL of the THP1-Dual™ KO-TREX1 cells from either treatment were added to each well of the 96-well plate containing censavudine titration at 50,000 cells/well. Cells were incubated at 37° C., 5% CO2 in a humidified incubator for six days. Cells treated with 1 μM 5-Aza-2′-Deoxycytidine were added at the same density as above and incubated at 37° C., 5% CO2 in a humidified incubator for six days. On day six, 25 μL of cell supernatant was transferred to a 96 well white-walled plate, followed by addition of 50 μL of QUANTI-LUC solution containing stabilizer to each well.

CD4+ T cells = assay: Mouse MOG study: BrdU cell proliferation assay on lymph node cells; assay type: in vivo, C57BL mice
Description: (§1) On day zero, four groups of six C57BL mice were immunized subcutaneously at 2 sites with 0.1 mL/site with MOG35-55/CFA (Hooke immunization kit). Dosing of mice started on day 0 and continued through day 11. The dosing schedule was:
(§2) The Vehicle used was 0.5% methylcellulose. Mice were dosed each day at approximately the same time each day. One day 11, 1 hour after receiving the last dose, plasma was collected, frozen and stored at −80° C. for analysis. At the end of the experiment, all mice were euthanized, and inguinal lymph nodes were collected and processed.
A bromodeoxyuridine (BrdU) cell proliferation assay was run on some of the lymph node cells to determine if treatment of mice with censavudine altered the proliferation of CD4+ T cells in culture upon restimulation with antigen. Cultures of the cells were set up in 96-well plates, each using 400k cells/well along with six concentrations of antigen: 0, 0.2 μg/mL, 0.7 μg/mL, 2.2 μg/mL, 6.6 μg/mL and 20.0 μg/mL, each with duplicates. The cells were cultured for approximately 40 hours, then BrdU was added to all wells at a concentration of 3 μg/mL. The cells were cultured an additional 3 hours after the addition of BrdU. Cells were then collected, stained with anti-CD4 and anti-BrdU antibodies (as per Becton Dickinson's standard protocols for BrdU labeling) and analyzed.

IL-17A, IFN, TNF = assay: Mouse MOG study: lymph node cell culture and CBA cytokine analysis; assay type: in vivo, C57BL mice
Description: as §1, §2
Lymph node cells from each group were set up in 96-well plates with 400k cells/well along with seven concentrations of antigen: 0, 0.07 μg/mL, 0.2 μg/mL, 0.7 μg/mL, 2.2 μg/mL, 6.6 μg/mL and 20.0 μg/mL. After 72 hours of culturing, the supernatants were collected and analyzed for IL-17A, IFN […] , and TNF using CBA kits (Becton-Dickinson).

Description for THP1-Dual KO-TREX1 cells: The THP1-Dual™ KO-TREX1 cells were cultured in RPMI 1640, 10% heat-inactivated fetal bovine serum, 25 mM HEPES, 10 μg/mL Blasticidin, and 100 μg/mL Zeocin. THP1-Dual™ KO-TREX1 cells were treated with a dose titration of censavudine alone or in the presence of 1 μM 5-Aza-2′-Deoxycytidine (Sigma, cat #189825). Type 1 Interferon and cell viability were assessed after six days of treatment.
The remaining cells were assessed for cell viability by adding 25 μL of CellTiter-Glo (Promega, G9683) solution to each well, placed on a shaker for 10 minutes at room temperature. Luminescence was detected on a plate reader, according to manufacturer's instructions.

SMILES: C#C[C@@]1(CO)C=C[C@H](n2cc(C)c(=O)[nH]c2=O)O1 [drawing 16]
IC50 [1]: 60 nM
IC50 [2]: 130 nM

IC50 [3]: 70 nM
IC50 [4]: 6400 nM
SMILES: C#C[C@@]1(COP(=O)(O)OP(=O)(O)OP(=O)(O)O)C=C[C@H](n2cc(C)c(=O)[nH]c2=O)O1

SMILES: C#C[C@@]1(CO)C=C[C@H](n2cc(C)c(=O)[nH]c2=O)O1 [censavudine, 1-[(2R,5R)-5-ethynyl-5-(hydroxymethyl)-2H-furan-2-yl]-5-methylpyrimidine-2,4-dione]
interferon (Type 1 Interferon reporter) (Type 1 Interferon): significant reduction of interferon; also recorded: inhibition of interferon
T cell proliferation (CD4+ T cells; MOG immunized mice, QD p.o. day 0-11, lymph node cells restimulated with antigen, BrdU, FIG. 3A): reduce levels; also recorded: reduction of T-cell proliferation
Th17 (T17) (CD4+ T cells; MOG immunized mice, various doses QD p.o., FIG. 3B): reduce levels; also recorded: reduction of the cytokine Th17
Th1 (T1) (CD4+ T cells; MOG immunized mice, various doses QD p.o., FIG. 3C): reduce levels; also recorded: reduction of the cytokine Th1
autoreactive T-cell responses (CD4+ T cells; doses between 40 mg/kg and 200 mg/kg, FIGS. 3A-3C): significant reduction
cell viability / cell death (THP1-Dual KO-TREX1 cells): does not lead to cell death
IL-17A level (IL-17A, IFN, TNF; MOG35-55/CFA immunized mice, QD p.o. day 0-11, lymph node cells restimulated with antigen 72 h, FIG. 4A): reduce levels; also recorded: reduction of IL17A
TNF level (IL-17A, IFN, TNF; MOG35-55/CFA immunized mice, QD p.o. day 0-11, lymph node cells restimulated with antigen 72 h, FIG. 4B): reduce levels; also recorded: reduction of TNF
IFN level (IL-17A, IFN, TNF; MOG35-55/CFA immunized mice, QD p.o. day 0-11, lymph node cells restimulated with antigen 72 h, FIG. 4C): reduce levels; also recorded: reduction of IFN
proinflammatory cytokines (IL17A, TNF, IFN), effect (IL-17A, IFN, TNF; all doses (8, 40, 200 mg/kg QD p.o.), FIGS. 4A-4C): some effect
proinflammatory cytokines (IL17A, TNF, IFN), response (IL-17A, IFN, TNF; doses of 40 mg/kg and 200 mg/kg, FIGS. 4A-4C): best responses
